Data reported in publication doi:10.1101/2024.12.25.630315 (bioRxiv, 2024).
Numbered stars: 1 amine (or outer) side, 2 acyl side, 3 side chain; on linkers, the order of the positions; unused ones are H or OH. Bridge positions count the residues as written; N and C are the ends. Square brackets hold non-standard residues; d marks the D form. Primed or numbered codes have the meaning given here. * marks the point of attachment. TATA = O=C(CC[*:1])N1CN(C(=O)CC[*:2])CN(C(=O)CC[*:3])C1; NOTA = O=C(O)CN1CCN(CC(=O)O)CCN(CC(=O)*)CC1; Hyp = O=C(O)[C@@H]1C[C@@H](O)CN1; hArg = N=C(N)NCCCC[C@H](N)C(=O)O; PEG12′ = not defined here

Legend:
Nectin-4 = details: cited from earlier work
Source text: A PEG linker was attached to the N-terminal cysteine residue of AJ632 (Fig. 2A). The free terminal amine was then conjugated to a NOTA chelator, enabling the successful radiolabeling with gallium-68 to produce [^68Ga]AJ647 and its non-radioactive analog [^natGa]AJ647. The radiolabeling process, performed as previously described ([16]), yielded [^68Ga]AJ647 with an 71.2±9.4% decay-corrected yield and 97±0.8% purity (n=20), ach ...

[1] = type: physicochemical
Description: The ^68Ge/^68Ga generator was manually eluted using […] of 0.1M HCl (Ultrapure trace-metal-free) in four different fractions (2.4 mL, 1 mL, 1 mL, and 1.4 mL). […] The reaction mixture was incubated for 12 min at 65 °C in a temperature-controlled heating block and purified on a RP-HPLC system using a semi-preparative C-18 Luna column ([…], 10 × 250 mm Phenomenex, Torrance, CA). The HPLC condition was gradient elution starting with 20% acetonitrile: water (0.1% formic acid) and reaching 60% acetonitrile: water (0.1% formic acid) in 20 min at a flow rate of 5 mL/min. […] The desired radiolabeled fraction was concentrated under a stream of N2 at 60 °C, formulated in 10% EtOH in saline, and used for in vitro and in vivo studies. The whole radiolabeling process was completed in approximately 35 min. Quality control, stability studies, and chemical identity were also performed on the same HPLC system using the same HPLC gradient as described above.

T24 cells = assay: In vitro binding of [^68Ga]AJ647 to T24 cells; type: cell-based; details: ~37 kBq (~1 μCi), 4°C, 1 hour, mean ± SD
Description: […] After incubation, cells were washed three times with ice cold PBS containing 0.1% Tween®20 and counted on an automated gamma counter. All cell radioactivity uptake studies were performed in quadruplicate for each cell line and repeated three times.

in vivo = details: male, mouse, iv, 1.85 MBq, total radioactivity
Description: All mouse studies were conducted through Johns Hopkins University Animal Care and Use Committee (ACUC) approved protocols. Protocol M021M175 was approved by Chair, ACUC. Xenografts were established in five-to-six-weeks old, male, non-obese, diabetic, severe-combined immunodeficient gamma (NSG) mice obtained from the Johns Hopkins University Immune Compromised Animal Core.
Mice were injected with cancer cells subcutaneously in […] PBS (top right flank) for all tumor models. Following cell numbers were used: HT1376 (4 M), UC9 (3 M), UC14 (3 M), RT112 (1.5 M), T24(3 M), SCaBER (4 M). Mice with tumor volumes of 100–200 mm^3 were used for all experiments. A minimum of 4 mice were used for all biodistribution studies. A minimum of 7 mice were used in pharmacodynamics experiment to account for greater variability.
To validate imaging studies, ex vivo biodistribution studies were conducted in mice with tumors of size 100–200 mm^3. Mice received ~50 μCi (1.85 MBq) of [^68Ga]AJ647 in […] of 5% ethanol in saline intravenously and mice were sacrificed at 5–180 min after [^68Ga]AJ647 injection for pharmacokinetic evaluation (n=4 per timepoint). In all other studies, 60 min time-point was chosen. Selected tissues (Blood, Skin, Muscle, Bone, Salivary glands, Tumor, Lungs, Heart, Liver, Pancreas, Spleen, Kidneys, Bladder, Testicles) were collected, weighed, counted, and their %IA/g values calculated as described previously (PMID: 37793856). For EV pharmacodynamics studies, fewer organs were harvested to accommodate more number of mice.

mouse Nectin-4 = target: T1, mouse Nectin-4 (Mus musculus, UniProt Q8R007); assay: Surface plasmon resonance, mouse Nectin-4; type: binding; details: SPR Biacore T200, CM5 chip, 25 °C, His-tagged mouse Nectin-4 captured, PBS-P+1% DMSO, 1:1 kinetics fit; mean±SD n=3
T1 construct: purchased R&D systems 3116-N4–050
T1 sequence (Q8R007 31-347 limits assumed): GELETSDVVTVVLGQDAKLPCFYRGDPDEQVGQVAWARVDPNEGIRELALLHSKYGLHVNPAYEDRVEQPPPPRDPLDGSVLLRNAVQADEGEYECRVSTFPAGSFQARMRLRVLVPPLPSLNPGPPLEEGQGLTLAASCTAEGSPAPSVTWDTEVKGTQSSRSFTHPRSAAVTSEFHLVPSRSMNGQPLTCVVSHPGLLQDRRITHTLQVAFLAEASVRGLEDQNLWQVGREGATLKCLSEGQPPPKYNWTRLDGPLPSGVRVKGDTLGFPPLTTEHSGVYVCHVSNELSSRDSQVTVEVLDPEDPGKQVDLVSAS
Description: (§1) The affinity of AJ647 for human and mouse Nectin-4 recombinant proteins were evaluated by SPR. The experiments were conducted using a Biacore T200 instrument with a CM5 chip at 25 °C. The ligands used were His-Tagged human Nectin-4 (R&D systems, catalog # 2659-N4–050, 44 kDa, 0.2 mg/ml stock concentration) and mouse Nectin-4 proteins (R&D systems, catalog # 3116-N4–050, 45 kDa, 0.2 mg/ml stock concentration), which were immobilized onto the CM5 chip. AJ647 (3057.5 Da, 10 mM stock concentration) was used as the analyte, which flowed over the ligand immobilized surface. FC2 and FC4 was used as the experimental flow cell, while FC1 and FC3 served as the reference. Anti-His antibody (1 mg/ml stock concentration) was immobilized on all FCs using standard amine coupling chemistry. […] Human Nectin-4 was captured onto FC2 at a level of ~600 RU, with a 1:20 dilution and 10 μg/ml diluted concentration in PBS-P. Mouse Nectin-4 was captured onto FC4 at a level of 600 RU, with a 1:20 dilution and 10 μg/ml diluted concentration in PBS-P. The theoretical Rmax values were calculated based on the captured response values and are presented in table below, assuming a 1:1 interaction mechanism. […] All association and dissociation kinetics were evaluated by 1:1 kinetics model fitting.

human Nectin-4 = target: T2, human Nectin-4 (Homo sapiens, UniProt Q96NY8); assay: Surface plasmon resonance, human Nectin-4; type: binding; details: SPR Biacore T200, CM5 chip, 25 °C, His-tagged human Nectin-4 captured, PBS-P+1% DMSO, 1:1 kinetics fit; mean±SD n=3
T2 construct: purchased R&D systems 2659-N4–050
T2 sequence (Q96NY8 32-349 limits assumed): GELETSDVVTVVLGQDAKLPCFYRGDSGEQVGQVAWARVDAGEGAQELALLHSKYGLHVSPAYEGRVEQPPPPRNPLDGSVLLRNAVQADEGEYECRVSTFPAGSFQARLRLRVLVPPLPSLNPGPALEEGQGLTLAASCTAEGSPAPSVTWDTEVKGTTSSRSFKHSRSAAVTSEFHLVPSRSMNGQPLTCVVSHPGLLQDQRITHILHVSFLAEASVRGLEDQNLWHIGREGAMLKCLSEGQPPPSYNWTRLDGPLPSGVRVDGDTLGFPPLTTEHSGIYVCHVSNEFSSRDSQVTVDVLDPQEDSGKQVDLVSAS
Description: as §1

[2] = target: T3, mouse Nectin-4 (recombinant) (mouse, UniProt Q8R007 31-347); assay: SPR
T3 chain: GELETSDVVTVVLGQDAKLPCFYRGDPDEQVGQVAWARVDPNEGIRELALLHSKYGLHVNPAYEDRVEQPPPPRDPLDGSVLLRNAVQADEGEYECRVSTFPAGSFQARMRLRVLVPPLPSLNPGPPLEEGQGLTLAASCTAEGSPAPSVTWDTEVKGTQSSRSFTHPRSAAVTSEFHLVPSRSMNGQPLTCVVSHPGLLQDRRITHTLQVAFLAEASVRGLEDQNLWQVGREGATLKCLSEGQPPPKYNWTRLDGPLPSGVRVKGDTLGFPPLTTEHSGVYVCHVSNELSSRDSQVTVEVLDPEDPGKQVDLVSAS

[3] = target: T4, His-Tagged human Nectin-4 (human, UniProt Q96NY8 32-349); assay: SPR
T4 chain: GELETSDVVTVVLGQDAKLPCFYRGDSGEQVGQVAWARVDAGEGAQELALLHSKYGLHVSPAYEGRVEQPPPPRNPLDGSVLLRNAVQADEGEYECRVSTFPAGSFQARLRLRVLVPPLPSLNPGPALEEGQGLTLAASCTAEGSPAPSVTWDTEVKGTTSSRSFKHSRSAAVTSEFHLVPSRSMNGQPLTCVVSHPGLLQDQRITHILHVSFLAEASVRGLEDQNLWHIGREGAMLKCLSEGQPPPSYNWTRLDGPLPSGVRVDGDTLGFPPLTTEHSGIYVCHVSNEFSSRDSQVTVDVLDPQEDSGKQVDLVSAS

[4] = target: T5, Nectin-4 on urothelial carcinoma cells (human (endogenous in HT1376, UC14, UC9, …, UniProt Q96NY8 32-510)); assay: flow cytometry on cells; competition: HT1376 cells with non-radioactive AJ647 5.4 uM to 0.01 nM for 30 min at 4 °C, washed, then EV-FITC for 30 min at 4 °C; mean fluorescence intensity as percent of 0 nM AJ647; details: one partner purified
T5 construct: Nectin-4, endogenous on the surface of urothelial carcinoma cell lines; also called cell surface Nectin-4; Nectin-4 receptor; source: endogenous, on HT1376, UC14, UC9, RT112 and SCaBER cells (and their xenografts)
T5 sequence (looked up): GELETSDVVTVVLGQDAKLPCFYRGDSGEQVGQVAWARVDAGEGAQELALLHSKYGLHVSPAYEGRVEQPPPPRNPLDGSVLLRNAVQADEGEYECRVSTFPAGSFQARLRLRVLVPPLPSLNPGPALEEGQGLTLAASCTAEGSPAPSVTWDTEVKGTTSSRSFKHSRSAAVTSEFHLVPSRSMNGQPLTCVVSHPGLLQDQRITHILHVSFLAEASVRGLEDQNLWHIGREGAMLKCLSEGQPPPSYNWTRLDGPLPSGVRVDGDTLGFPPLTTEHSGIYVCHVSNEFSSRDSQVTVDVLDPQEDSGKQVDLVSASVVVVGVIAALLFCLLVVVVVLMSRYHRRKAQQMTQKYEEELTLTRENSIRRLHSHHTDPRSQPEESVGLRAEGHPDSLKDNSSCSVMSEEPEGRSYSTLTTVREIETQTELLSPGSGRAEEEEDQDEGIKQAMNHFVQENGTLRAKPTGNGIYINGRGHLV

NH2-PEG12-(Cys-Pro-Nal-Asp-Cys-Met-hArg-dAsp-Trp-Ser-Thr-Pro-Hyp-Trp-Cys)-TATA based cyclization (bicyclic or more) [AJ632]
affinity to Nectin-4 (Nectin-4): low nanomolar

CSCC[C@@H]1NC(=O)[C@@H]2CSCCC(=O)N3CN(CN(C3)C(=O)CCSC[C@H](NC(=O)CCOCCOCCOCCOCCOCCOCCOCCOCCOCCOCCOCCOCCNC(=O)CN3CCN(CC(=O)O)CCN(CC(=O)O)CC3)C(=O)N3CCC[C@H]3C(=O)N[C@@H](Cc3cccc4ccccc34)C(=O)N[C@@H](CC(=O)O)C(=O)N2)C(=O)CCSC[C@@H](C(N)=O)NC(=O)[C@H](Cc2c[nH]c3ccccc23)NC(=O)[C@@H]2C[C@@H](O)CN2C(=O)[C@@H]2CCCN2C(=O)[C@H]([C@@H](C)O)NC(=O)[C@H](CO)NC(=O)[C@H](Cc2c[nH]c3ccccc23)NC(=O)[C@@H](CC(=O)O)NC(=O)[C@H](CCCCNC(=N)N)NC1=O [[^68Ga]AJ647, metal not drawn]
stability of [^68Ga]AJ647 confirmed [1]: up to 3 hours
[^68Ga]AJ647 binding (percent incubated activity) (T24 cells): 0.2±0.11 %IA
tissue to tissue ratio at 0.25 h (in vivo; NSG): 1.31 ± 0.41
tissue to tissue ratio at 1 h (in vivo; NSG): 4.6 ± 1.07
tissue uptake at 2 h (in vivo; Adrenals %IA/g): 3.11 ± 0.21 %ID/g
tissue uptake at 3 h (in vivo; Adrenals %IA/g): 3.01 ± 0.27 %ID/g
tissue uptake at 3 h (in vivo; Brain %IA/g): 0.07 ± 0.01 %ID/g
tissue uptake at 3 h (in vivo; Kidney %IA/g): 24.8 ± 8.74 %ID/g
tissue uptake at 1 h (in vivo; Large Intestine %IA/g): 0.25 ± 0.13 %ID/g
tissue uptake at 2 h (in vivo; Large Intestine %IA/g): 0.18 ± 0.06 %ID/g
tissue uptake at 3 h (in vivo; Large Intestine %IA/g): 0.28 ± 0.13 %ID/g
tissue uptake at 1 h (in vivo; Testicles %IA/g): 0.71 ± 0.24 %ID/g

CSCC[C@@H]1NC(=O)[C@@H]2CSCCC(=O)N3CN(CN(C3)C(=O)CCSC[C@H](NC(=O)CCOCCOCCOCCOCCOCCOCCOCCOCCOCCOCCOCCOCCNC(=O)CN3CCN(CC(=O)O)CCN(CC(=O)O)CC3)C(=O)N3CCC[C@H]3C(=O)N[C@@H](Cc3cccc4ccccc34)C(=O)N[C@@H](CC(=O)O)C(=O)N2)C(=O)CCSC[C@@H](C(N)=O)NC(=O)[C@H](Cc2c[nH]c3ccccc23)NC(=O)[C@@H]2C[C@@H](O)CN2C(=O)[C@@H]2CCCN2C(=O)[C@H]([C@@H](C)O)NC(=O)[C@H](CO)NC(=O)[C@H](Cc2c[nH]c3ccccc23)NC(=O)[C@@H](CC(=O)O)NC(=O)[C@H](CCCCNC(=N)N)NC1=O [[^natGa]AJ647, metal not drawn]
Kd (mouse Nectin-4): 14.1 ± 3.4 nM
Kd (human Nectin-4): 15 ± 10.1 nM

{NOTA-PEG12′}-CP[Nal]DCM[hArg][dD]WSTP[Hyp]WC-NH2 (linker 1-5-15 via TATA; also: natGa complexed in NOTA) [[^natGa]AJ647]
koff [2]: 0.0101 s⁻¹
koff [3]: 0.0106 s⁻¹

{NOTA-PEG12′}-CP[Nal]DCM[hArg][dD]WSTP[Hyp]WC-NH2 (linker 1-5-15 via TATA) [AJ647]
IC50 [4]: 35 nM
